Data: patent US9290457B2, “Substituted dihydropyrimidinones and their use as inhibitors of neutrophil elastase activity” (Boehringer Ingelheim International GmbH, priority 2014, dated 2016)

Biological target: neutrophil elastase (Homo sapiens (Human), UniProt P08246)
Assay: Human Neutrophil Elastase Assay
Format: biochemical
Settings: substrate MeOSuc-Ala-Ala-Pro-Val-AMC
Method: Human Neutrophil Elastase Assay
All other materials were of the highest grade commercially available.
The following buffers were used: Compound buffer: 100 mM Tris, 500 mM NaCl, adjusted to pH 7.5; Assay buffer: 100 mM Tris, 500 mM NaCl, adjusted to pH 7.5, containing 0.01% BSA.
Assay conditions: Test compounds were prediluted in DMSO and subsequently in compound buffer (5% DMSO final). […] After inactivation of the enzyme, fluorescence intensities were measured at 380 nm excitation and 460 nm emission wavelengths.
Each plate contains wells with a high value control (DMSO+enzyme+substrate) and wells with a low value control (DMSO+inactivated enzyme+substrate). IC50 values were estimated using a sigmoidal concentration response curve with variable slope. Means of low values were taken as 0%, means of high values as 100%.

Chain of neutrophil elastase (P08246 30-247): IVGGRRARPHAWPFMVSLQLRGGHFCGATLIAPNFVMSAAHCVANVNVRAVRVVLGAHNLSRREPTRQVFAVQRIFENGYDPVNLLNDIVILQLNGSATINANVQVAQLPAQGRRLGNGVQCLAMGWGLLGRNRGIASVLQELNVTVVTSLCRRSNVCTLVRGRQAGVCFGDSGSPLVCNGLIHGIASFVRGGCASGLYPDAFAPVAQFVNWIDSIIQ

Compound | IC50 [nM]
CC(=O)C1=C(C)N(c2cccc(C(F)(F)F)c2)C(=O)N(C)C1c1ccc(C#N)cc1C(=O)N(C)Cc1ccn(C)n1 (stereo not shown) [Example 1.78] | < 1
CC(=O)C1=C(C)N(c2cccc(C(F)(F)F)c2)C(=O)N(C)C1c1ccc(C#N)cc1C(=O)N(C)Cc1nncn1C (stereo not shown) [Example 1.79] | < 1
CC(=O)C1=C(C)N(c2cccc(C(F)(F)F)c2)C(=O)N(C)C1c1ccc(C#N)cc1C(=O)N1CCN2CCCC2C1 (stereo not shown) [Example 1.80] | 6.3
CC(=O)C1=C(C)N(c2cccc(C(F)(F)F)c2)C(=O)N(C)C1c1ccc(C#N)cc1C(=O)N1CCN(C2CC2)CC1 (stereo not shown) [Example 1.81] | 8.8
CC(=O)C1=C(C)N(c2cccc(C(F)(F)F)c2)C(=O)N(C)C1c1ccc(C#N)cc1C(=O)N1CCN(C(C)C)CC1 (stereo not shown) [Example 1.82] | 2.7
CC(=O)C1=C(C)N(c2cccc(C(F)(F)F)c2)C(=O)N(C)C1c1ccc(C#N)cc1C(=O)NC1CCN(C(C)C)C1 (stereo not shown) [Example 1.83] | 1.2
CC(=O)C1=C(C)N(c2cccc(C(F)(F)F)c2)C(=O)N(C)C1c1ccc(C#N)cc1C(=O)NCCN(C)C (stereo not shown) [Example 1.84] | < 1
CC(=O)C1=C(C)N(c2cccc(C(F)(F)F)c2)C(=O)N(C)C1c1ccc(C#N)cc1C(=O)N1CC[C@@H](N)C1 (stereo partly shown) [Example 2.10] | < 1
CC(=O)C1=C(C)N(c2cccc(C(F)(F)F)c2)C(=O)N(C)C1c1ccc(C#N)cc1C(=O)N1CC[C@H](N)C1 (stereo partly shown) [Example 2.11] | < 1
CNCCN(C)C(=O)c1cc(C#N)ccc1C1C(C(C)=O)=C(C)N(c2cccc(C(F)(F)F)c2)C(=O)N1C (stereo not shown) [Example 2.12] | < 1
CC(=O)C1=C(C)N(c2cccc(C(F)(F)F)c2)C(=O)N(C)C1c1ccc(C#N)cc1C(=O)NCC(C)(C)N (stereo not shown) [Example 2.13] | < 1
CC(=O)C1=C(C)N(c2cccc(C(F)(F)F)c2)C(=O)N(C)C1c1ccc(C#N)cc1C(=O)N1CC2CC1CN2 (stereo not shown) [Example 2.14] | 5.4
CC(=O)C1=C(C)N(c2cccc(C(F)(F)F)c2)C(=O)N(C)C1c1ccc(C#N)cc1C(=O)N1CCNC(C)C1 (stereo not shown) [Example 2.15] | 4.5
CN[C@H]1CCN(C(=O)c2cc(C#N)ccc2C2C(C(C)=O)=C(C)N(c3cccc(C(F)(F)F)c3)C(=O)N2C)C1 (stereo partly shown) [Example 2.16] | 1.2
CCOC(=O)C1=C(C)N(c2cccc(C(F)(F)F)c2)C(=O)N(C)C1c1ccc(C#N)cc1C(=O)N(C)C (stereo not shown) [Example 3, 4-(4-Cyano-2-dimethylcarbamoyl-phenyl)-3,6-dimethyl-2-oxo-1-(3-trifluoromethyl-phenyl)-1,2,3,4-tetrahydro-pyrimidine-5-carboxylic acid ethyl ester] | < 1
CCOC(=O)C1=C(C)N(c2cccc(C(F)(F)F)c2)C(=O)N(C)C1c1ccc(C#N)cc1C(=O)NC1(C#N)CC1 (stereo not shown) [Example 3.1] | < 1
CCOC(=O)C1=C(C)N(c2cccc(C(F)(F)F)c2)C(=O)N(C)C1c1ccc(C#N)cc1C(=O)N1CCN(CC)CC1 (stereo not shown) [Example 3.2] | 3
CCOC(=O)C1=C(C)N(c2cccc(C(F)(F)F)c2)C(=O)N(C)C1c1ccc(C#N)cc1C(N)=O (stereo not shown) [Example 3.3] | 3
CCOC(=O)C1=C(C)N(c2cccc(C(F)(F)F)c2)C(=O)N(C)C1c1ccc(C#N)cc1C(=O)NC (stereo not shown) [Example 3.4] | 3
CCNC(=O)c1cc(C#N)ccc1C1C(C(=O)OCC)=C(C)N(c2cccc(C(F)(F)F)c2)C(=O)N1C (stereo not shown) [Example 3.5] | 3

Compound | IC50 [nM]
C#CCNC(=O)c1cc(C#N)ccc1C1C(C(=O)OCC)=C(C)N(c2cccc(C(F)(F)F)c2)C(=O)N1C (stereo not shown) [Example 3.6] | 3
CCOC(=O)C1=C(C)N(c2cccc(C(F)(F)F)c2)C(=O)N(C)C1c1ccc(C#N)cc1C(=O)NCC#N (stereo not shown) [Example 3.7] | 3
CCOC(=O)C1=C(C)N(c2cccc(C(F)(F)F)c2)C(=O)N(C)C1c1ccc(C#N)cc1C(=O)NC1CC1 (stereo not shown) [Example 3.8] | 3
CCOC(=O)C1=C(C)N(c2cccc(C(F)(F)F)c2)C(=O)N(C)C1c1ccc(C#N)cc1C(=O)N1CCC1 (stereo not shown) [Example 3.9] | 3
CCOC(=O)C1=C(C)N(c2cccc(C(F)(F)F)c2)C(=O)N(C)C1c1ccc(C#N)cc1C(=O)NCCO (stereo not shown) [Example 3.10] | 3
CCOC(=O)C1=C(C)N(c2cccc(C(F)(F)F)c2)C(=O)N(C)C1c1ccc(C#N)cc1C(=O)NCCF (stereo not shown) [Example 3.11] | < 1
CCOC(=O)C1=C(C)N(c2cccc(C(F)(F)F)c2)C(=O)N(C)C1c1ccc(C#N)cc1C(=O)N1CCCC1 (stereo not shown) [Example 3.12] | < 1
CCOC(=O)C1=C(C)N(c2cccc(C(F)(F)F)c2)C(=O)N(C)C1c1ccc(C#N)cc1C(=O)N1CC(O)C1 (stereo not shown) [Example 3.13] | < 1
CCOC(=O)C1=C(C)N(c2cccc(C(F)(F)F)c2)C(=O)N(C)C1c1ccc(C#N)cc1C(=O)NC1COC1 (stereo not shown) [Example 3.14] | < 1
CCOC(=O)C1=C(C)N(c2cccc(C(F)(F)F)c2)C(=O)N(C)C1c1ccc(C#N)cc1C(=O)NCC(F)F (stereo not shown) [Example 3.18] | < 1
CCOC(=O)C1=C(C)N(c2cccc(C(F)(F)F)c2)C(=O)N(C)C1c1ccc(C#N)cc1C(=O)NC12CCC1C2 (stereo not shown) [Example 3.19] | < 1
CCOC(=O)C1=C(C)N(c2cccc(C(F)(F)F)c2)C(=O)N(C)C1c1ccc(C#N)cc1C(=O)NC1CCOC1 (stereo not shown) [Example 3.21] | 1.4
CCOC(=O)C1=C(C)N(c2cccc(C(F)(F)F)c2)C(=O)N(C)C1c1ccc(C#N)cc1C(=O)N1CCOCC1 (stereo not shown) [Example 3.22] | 2
CCOC(=O)C1=C(C)N(c2cccc(C(F)(F)F)c2)C(=O)N(C)C1c1ccc(C#N)cc1C(=O)NCC(C)(C)O (stereo not shown) [Example 3.23] | 1.3
CCOC(=O)C1=C(C)N(c2cccc(C(F)(F)F)c2)C(=O)N(C)C1c1ccc(C#N)cc1C(=O)N(C)CCOC (stereo not shown) [Example 3.24] | 1
CCOC(=O)C1=C(C)N(c2cccc(C(F)(F)F)c2)C(=O)N(C)C1c1ccc(C#N)cc1C(=O)NCCCOC (stereo not shown) [Example 3.25] | 1.2
CCOC(=O)C1=C(C)N(c2cccc(C(F)(F)F)c2)C(=O)N(C)C1c1ccc(C#N)cc1C(=O)NCC(F)(F)F (stereo not shown) [Example 3.26] | 1.6
CCOC(=O)C1=C(C)N(c2cccc(C(F)(F)F)c2)C(=O)N(C)C1c1ccc(C#N)cc1C(=O)N1CCC(O)CC1 (stereo not shown) [Example 3.27] | 2.2
CCOC(=O)C1=C(C)N(c2cccc(C(F)(F)F)c2)C(=O)N(C)C1c1ccc(C#N)cc1C(=O)NC1CCC(O)C1 (stereo not shown) [Example 3.28] | 1.3
CCOC(=O)C1=C(C)N(c2cccc(C(F)(F)F)c2)C(=O)N(C)C1c1ccc(C#N)cc1C(=O)NC1CCOCC1 (stereo not shown) [Example 3.29] | 1.4

Compound | IC50 [nM]
CCOC(=O)C1=C(C)N(c2cccc(C(F)(F)F)c2)C(=O)N(C)C1c1ccc(C#N)cc1C(=O)N(C)CCCOC (stereo not shown) [Example 3.30] | 1.1
CCOC(=O)C1=C(C)N(c2cccc(C(F)(F)F)c2)C(=O)N(C)C1c1ccc(C#N)cc1C(=O)NC1CCN(C)CC1 (stereo not shown) [Example 3.31] | 1
CCOC(=O)C1=C(C)N(c2cccc(C(F)(F)F)c2)C(=O)N(C)C1c1ccc(C#N)cc1C(=O)NCCS(C)(=O)=O (stereo not shown) [Example 3.32] | 1.1
CCOC(=O)C1=C(C)N(c2cccc(C(F)(F)F)c2)C(=O)N(C)C1c1ccc(C#N)cc1C(=O)N(C)Cc1cnn(C)c1 (stereo not shown) [Example 3.33] | < 1
CCOC(=O)C1=C(C)N(c2cccc(C(F)(F)F)c2)C(=O)N(C)C1c1ccc(C#N)cc1C(=O)NC1CCS(=O)(=O)C1 (stereo not shown) [Example 3.34] | 1
CCOC(=O)C1=C(C)N(c2cccc(C(F)(F)F)c2)C(=O)N(C)C1c1ccc(C#N)cc1C(=O)NCCN(C)C (stereo not shown) [Example 3.35] | < 1
CCOC(=O)C1=C(C)N(c2cccc(C(F)(F)F)c2)C(=O)N(C)C1c1ccc(C#N)cc1C(=O)N(C)CCN(C)C (stereo not shown) [Example 3.36] | < 1
CCOC(=O)C1=C(C)N(c2cccc(C(F)(F)F)c2)C(=O)N(C)C1c1ccc(C#N)cc1C(=O)N1CC[C@@H](N(C)C)C1 (stereo partly shown) [Example 3.37] | 2.8
CCOC(=O)C1=C(C)N(c2cccc(C(F)(F)F)c2)C(=O)N(C)C1c1ccc(C#N)cc1C(=O)N1CC[C@H](N(C)C)C1 (stereo partly shown) [Example 3.38] | 1
CCOC(=O)C1=C(C)N(c2cccc(C(F)(F)F)c2)C(=O)N(C)C1c1ccc(C#N)cc1C(=O)N1CCn2cnnc2C1 (stereo not shown) [Example 3.41] | < 1
CCOC(=O)C1=C(C)N(c2cccc(C(F)(F)F)c2)C(=O)N(C)C1c1ccc(C#N)cc1C(=O)N1CCN(C2CC2)CC1 (stereo not shown) [Example 3.42] | 2.9
CCOC(=O)C1=C(C)N(c2cccc(C(F)(F)F)c2)C(=O)N(C)C1c1ccc(C#N)cc1C(=O)N1CCN2CCCC2C1 (stereo not shown) [Example 3.43] | 2.8
CCOC(=O)C1=C(C)N(c2cccc(C(F)(F)F)c2)C(=O)N(C)C1c1ccc(C#N)cc1C(=O)NC1CCN(C(C)C)C1 (stereo not shown) [Example 3.44] | 1.1
CCOC(=O)C1=C(C)N(c2cccc(C(F)(F)F)c2)C(=O)N(C)C1c1ccc(C#N)cc1C(=O)N1CCN(C(C)C)CC1 (stereo not shown) [Example 3.45] | 1.8
CCOC(=O)C1=C(C)N(c2cccc(C(F)(F)F)c2)C(=O)N(C)C1c1ccc(C#N)cc1C(=O)N1CCN2CCOCC2C1 (stereo not shown) [Example 3.46] | 3.8
CCOC(=O)C1=C(C)N(c2cccc(C(F)(F)F)c2)C(=O)N(C)C1c1ccc(C#N)cc1C(=O)N1CCNCC1 (stereo not shown) [Example 4, 4-[4-Cyano-2-(piperazine-1-carbonyl)-phenyl]-3,6-dimethyl-2-oxo-1-(3-trifluoromethyl-phenyl)-1,2,3,4-tetrahydro-pyrimidine-5-carboxylic acid ethyl ester] | 1.4
CCOC(=O)C1=C(C)N(c2cccc(C(F)(F)F)c2)C(=O)N(C)C1c1ccc(C#N)cc1C(=O)N1C[C@H]2C[C@@H]1CN2 (stereo partly shown) [Example 4.1] | 2.4
CCOC(=O)C1=C(C)N(c2cccc(C(F)(F)F)c2)C(=O)N(C)C1c1ccc(C#N)cc1C(=O)NC1CCNCC1 (stereo not shown) [Example 4.2] | 1.7
